Assay results: US11395857B2, “Radiolabeled melanocortin 1 receptor-specific alpha-melanocyte-stimulating hormone analogues for imaging or therapy” (PROVINCIAL HEALTH SERVICES AUTHORITY, priority 2018, dated 2022)
Where two headings read alike, the source gives them in different places.

Assays:
B16F10 mouse melanoma = experiment: Biodistribution of 177Lu-labeled αMSH analogues in mice bearing B16F10 mouse melanoma; format: in vivo, C57BL/6J mice; conditions: C57BL/6J mice, B16F10 melanoma
Experimental: (§1) The B16-F10 mouse melanoma cells were cultured and inoculated in mice as described in Example 1.
(§2) For biodistribution studies, approximately 1-2 MBq of ^177Lu-labeled αMSH analogues via tail vein under anesthesia. At 1, 4, 24, and 120 h p.i., the mice were euthanized by CO2 inhalation. Organs/tissues were harvested and the radioactivity was measured as described in Example 1.

[1] = as above; format: in vivo, C57BL/6J mice; conditions: mouse, iv, total radioactivity, C57BL/6J mice, B16F10 melanoma
Experimental: as §1, §2

SMILES: CCCC[C@H](NC(=O)CN1CCC(NC(=O)[C@H](CCCCNC(=O)CN2CCN(CC(=O)O)CCN(CC(=O)O)CCN(CC(=O)O)CC2)NC(=O)[C@H](CCC(=O)O)NC(=O)CCCc2ccc(I)cc2)CC1)C(=O)N[C@H]1CC(=O)NCCCC[C@@H](C(N)=O)N(C)C(=O)[C@H](Cc2c[nH]c3ccccc23)N(C)C(=O)[C@H](CCCNC(=N)N)N(C)C(=O)[C@@H](Cc2ccccc2)NC(=O)[C@H](Cc2c[nH]cn2)N(C)C1=O [^177Lu-labeled CCZ01088, metal not drawn]
- Biodistribution, B16F10 tumour (B16F10 mouse melanoma; 1 h p.i.): 10.6 ± 2.95 % ID/g
- Biodistribution, B16F10 tumour (B16F10 mouse melanoma; 4 h p.i.): 10.9 ± 2.22 % ID/g
- Biodistribution, B16F10 tumour (B16F10 mouse melanoma; 24 h p.i.): 5.50 ± 2.36 % ID/g
- Biodistribution, B16F10 tumour (B16F10 mouse melanoma; 120 h p.i.): 0.88 ± 0.58 % ID/g
- tissue uptake at 1 h ([1]; male, seminal glands, 1 h p.i., read-out: Biodistribution, Seminal glands): 0.52 ± 0.15 %ID/g
- tissue uptake at 4 h ([1]; male, seminal glands, 4 h p.i., read-out: Biodistribution, Seminal glands): 0.14 ± 0.04 %ID/g
- tissue uptake at 24 h ([1]; male, seminal glands, 24 h p.i., read-out: Biodistribution, Seminal glands): 0.08 ± 0.07 %ID/g
- tissue uptake at 120 h ([1]; male, seminal glands, 120 h p.i., read-out: Biodistribution, Seminal glands): 0.04 ± 0.03 %ID/g
- tissue uptake at 4 h ([1]; male, testes, 4 h p.i., read-out: Biodistribution, Testes): 0.33 ± 0.08 %ID/g
- tissue uptake at 24 h ([1]; male, testes, 24 h p.i., read-out: Biodistribution, Testes): 0.17 ± 0.01 %ID/g
- tissue uptake at 120 h ([1]; male, testes, 120 h p.i., read-out: Biodistribution, Testes): 0.11 ± 0.01 %ID/g
- tissue uptake at 1 h ([1]; adrenal glands, 1 h p.i., read-out: Biodistribution, Adrenal glands): 3.69 ± 2.09 %ID/g
- tissue uptake at 4 h ([1]; adrenal glands, 4 h p.i., read-out: Biodistribution, Adrenal glands): 0.88 ± 0.41 %ID/g
- tissue uptake at 24 h ([1]; adrenal glands, 24 h p.i., read-out: Biodistribution, Adrenal glands): 0.62 ± 0.34 %ID/g
- tissue uptake at 120 h ([1]; adrenal glands, 120 h p.i., read-out: Biodistribution, Adrenal glands): 0.34 ± 0.23 %ID/g
- tissue uptake at 1 h ([1]; blood, 1 h p.i., read-out: Biodistribution, Blood): 7.41 ± 1.64 %ID/g
- tissue uptake at 4 h ([1]; blood, 4 h p.i., read-out: Biodistribution, Blood): 1.44 ± 0.39 %ID/g
- tissue uptake at 24 h ([1]; blood, 24 h p.i., read-out: Biodistribution, Blood): 0.09 ± 0.02 %ID/g
- tissue uptake at 120 h ([1]; blood, 120 h p.i., read-out: Biodistribution, Blood): 0.01 %ID/g
- tissue uptake at 1 h ([1]; bone, 1 h p.i., read-out: Biodistribution, Bone): 0.98 ± 0.12 %ID/g
- tissue uptake at 4 h ([1]; bone, 4 h p.i., read-out: Biodistribution, Bone): 0.3 ± 0.08 %ID/g
- tissue uptake at 24 h ([1]; bone, 24 h p.i., read-out: Biodistribution, Bone): 0.23 ± 0.04 %ID/g
- tissue uptake at 120 h ([1]; bone, 120 h p.i., read-out: Biodistribution, Bone): 0.13 ± 0.09 %ID/g
- tissue uptake at 1 h ([1]; brain, 1 h p.i., read-out: Biodistribution, Brain): 0.13 ± 0.02 %ID/g
- tissue uptake at 4 h ([1]; brain, 4 h p.i., read-out: Biodistribution, Brain): 0.04 ± 0.02 %ID/g
- tissue uptake at 24 h ([1]; brain, 24 h p.i., read-out: Biodistribution, Brain): 0.02 ± 0.01 %ID/g
- tissue uptake at 120 h ([1]; brain, 120 h p.i., read-out: Biodistribution, Brain): 0.01 ± 0.01 %ID/g
- tissue uptake at 1 h ([1]; fat, 1 h p.i., read-out: Biodistribution, Fat): 0.65 ± 0.37 %ID/g
- tissue uptake at 4 h ([1]; fat, 4 h p.i., read-out: Biodistribution, Fat): 0.16 ± 0.07 %ID/g
- tissue uptake at 24 h ([1]; fat, 24 h p.i., read-out: Biodistribution, Fat): 0.06 ± 0.04 %ID/g
- tissue uptake at 120 h ([1]; fat, 120 h p.i., read-out: Biodistribution, Fat): 0.03 ± 0.01 %ID/g
- tissue uptake at 1 h ([1]; heart, 1 h p.i., read-out: Biodistribution, Heart): 1.84 ± 0.31 %ID/g
- tissue uptake at 4 h ([1]; heart, 4 h p.i., read-out: Biodistribution, Heart): 0.4 ± 0.1 %ID/g
- tissue uptake at 24 h ([1]; heart, 24 h p.i., read-out: Biodistribution, Heart): 0.13 ± 0.02 %ID/g
- tissue uptake at 120 h ([1]; heart, 120 h p.i., read-out: Biodistribution, Heart): 0.07 ± 0.02 %ID/g
- tissue uptake at 1 h ([1]; intestine, 1 h p.i., read-out: Biodistribution, Intestine): 1.39 ± 0.37 %ID/g
- tissue uptake at 4 h ([1]; intestine, 4 h p.i., read-out: Biodistribution, Intestine): 0.37 ± 0.11 %ID/g
- tissue uptake at 24 h ([1]; intestine, 24 h p.i., read-out: Biodistribution, Intestine): 0.18 ± 0.03 %ID/g
- tissue uptake at 120 h ([1]; intestine, 120 h p.i., read-out: Biodistribution, Intestine): 0.43 ± 0.55 %ID/g
- tissue uptake at 1 h ([1]; kidneys, 1 h p.i., read-out: Biodistribution, Kidneys): 13.2 ± 3.61 %ID/g
- tissue uptake at 4 h ([1]; kidneys, 4 h p.i., read-out: Biodistribution, Kidneys): 13.5 ± 3.47 %ID/g
- tissue uptake at 24 h ([1]; kidneys, 24 h p.i., read-out: Biodistribution, Kidneys): 8.1 ± 2.24 %ID/g
- tissue uptake at 120 h ([1]; kidneys, 120 h p.i., read-out: Biodistribution, Kidneys): 1.85 ± 0.57 %ID/g
- tissue uptake at 1 h ([1]; liver, 1 h p.i., read-out: Biodistribution, Liver): 2.72 ± 0.27 %ID/g
- tissue uptake at 4 h ([1]; liver, 4 h p.i., read-out: Biodistribution, Liver): 1.98 ± 0.41 %ID/g
- tissue uptake at 24 h ([1]; liver, 24 h p.i., read-out: Biodistribution, Liver): 4.7 ± 3.76 %ID/g
- tissue uptake at 120 h ([1]; liver, 120 h p.i., read-out: Biodistribution, Liver): 0.55 ± 0.18 %ID/g
- tissue uptake at 1 h ([1]; lungs, 1 h p.i., read-out: Biodistribution, Lungs): 5.51 ± 1.75 %ID/g
- tissue uptake at 4 h ([1]; lungs, 4 h p.i., read-out: Biodistribution, Lungs): 2.34 ± 1.21 %ID/g
- tissue uptake at 24 h ([1]; lungs, 24 h p.i., read-out: Biodistribution, Lungs): 1.19 ± 0.81 %ID/g
- tissue uptake at 120 h ([1]; lungs, 120 h p.i., read-out: Biodistribution, Lungs): 0.1 ± 0.05 %ID/g
- tissue uptake at 1 h ([1]; muscle, 1 h p.i., read-out: Biodistribution, Muscle): 0.76 ± 0.14 %ID/g
- tissue uptake at 4 h ([1]; muscle, 4 h p.i., read-out: Biodistribution, Muscle): 0.17 ± 0.04 %ID/g
- tissue uptake at 24 h ([1]; muscle, 24 h p.i., read-out: Biodistribution, Muscle): 0.06 ± 0.02 %ID/g
- tissue uptake at 120 h ([1]; muscle, 120 h p.i., read-out: Biodistribution, Muscle): 0.03 ± 0.01 %ID/g
- tissue uptake at 1 h ([1]; pancreas, 1 h p.i., read-out: Biodistribution, Pancreas): 1.23 ± 0.18 %ID/g
- tissue uptake at 4 h ([1]; pancreas, 4 h p.i., read-out: Biodistribution, Pancreas): 0.31 ± 0.1 %ID/g
- tissue uptake at 24 h ([1]; pancreas, 24 h p.i., read-out: Biodistribution, Pancreas): 0.1 ± 0.01 %ID/g
- tissue uptake at 120 h ([1]; pancreas, 120 h p.i., read-out: Biodistribution, Pancreas): 0.06 ± 0.01 %ID/g
- tissue uptake at 1 h ([1]; spleen, 1 h p.i., read-out: Biodistribution, Spleen): 1.99 ± 0.38 %ID/g
- tissue uptake at 4 h ([1]; spleen, 4 h p.i., read-out: Biodistribution, Spleen): 0.83 ± 0.1 %ID/g
- tissue uptake at 24 h ([1]; spleen, 24 h p.i., read-out: Biodistribution, Spleen): 1 ± 0.35 %ID/g
- tissue uptake at 120 h ([1]; spleen, 120 h p.i., read-out: Biodistribution, Spleen): 0.3 ± 0.12 %ID/g
- tissue uptake at 1 h ([1]; stomach, 1 h p.i., read-out: Biodistribution, Stomach): 1.2 ± 0.45 %ID/g
- tissue uptake at 4 h ([1]; stomach, 4 h p.i., read-out: Biodistribution, Stomach): 0.26 ± 0.14 %ID/g
- tissue uptake at 24 h ([1]; stomach, 24 h p.i., read-out: Biodistribution, Stomach): 0.31 ± 0.17 %ID/g
- tissue uptake at 120 h ([1]; stomach, 120 h p.i., read-out: Biodistribution, Stomach): 1.83 ± 2.7 %ID/g
- tissue uptake at 1 h ([1]; thyroid, 1 h p.i., read-out: Biodistribution, Thyroid): 1.68 ± 0.26 %ID/g
- tissue uptake at 4 h ([1]; thyroid, 4 h p.i., read-out: Biodistribution, Thyroid): 0.51 ± 0.13 %ID/g
- tissue uptake at 24 h ([1]; thyroid, 24 h p.i., read-out: Biodistribution, Thyroid): 0.24 ± 0.04 %ID/g
- tissue uptake at 120 h ([1]; thyroid, 120 h p.i., read-out: Biodistribution, Thyroid): 0.15 ± 0.03 %ID/g
- tissue to tissue ratio at 1 h ([1]; tumour/blood, 1 h p.i., read-out: Tumour/blood): 1.42 ± 0.2
- tissue to tissue ratio at 4 h ([1]; tumour/blood, 4 h p.i., read-out: Tumour/blood): 7.97 ± 2.18
- tissue to tissue ratio at 24 h ([1]; tumour/blood, 24 h p.i., read-out: Tumour/blood): 60.6 ± 23.8
- tissue to tissue ratio at 120 h ([1]; tumour/blood, 120 h p.i., read-out: Tumour/blood): 84.4 ± 47.2
- tissue to tissue ratio at 1 h ([1]; tumour/kidney, 1 h p.i., read-out: Tumour/kidney): 0.8 ± 0.09
- tissue to tissue ratio at 4 h ([1]; tumour/kidney, 4 h p.i., read-out: Tumour/kidney): 0.85 ± 0.24
- tissue to tissue ratio at 24 h ([1]; tumour/kidney, 24 h p.i., read-out: Tumour/kidney): 0.68 ± 0.22
- tissue to tissue ratio at 120 h ([1]; tumour/kidney, 120 h p.i., read-out: Tumour/kidney): 0.45 ± 0.21
- tissue to tissue ratio at 1 h ([1]; tumour/muscle, 1 h p.i., read-out: Tumour/muscle): 13.8 ± 2.48
- tissue to tissue ratio at 4 h ([1]; tumour/muscle, 4 h p.i., read-out: Tumour/muscle): 65.4 ± 13.7
- tissue to tissue ratio at 24 h ([1]; tumour/muscle, 24 h p.i., read-out: Tumour/muscle): 104 ± 53
- tissue to tissue ratio at 120 h ([1]; tumour/muscle, 120 h p.i., read-out: Tumour/muscle): 35.6 ± 22.4
- excreta dose per gram or mL at 1 h ([1]; urine, 1 h p.i.): 322 ± 306 %ID/g
- excreta dose per gram or mL at 4 h ([1]; urine, 4 h p.i.): 106 ± 97.1 %ID/g
- excreta dose per gram or mL at 24 h ([1]; urine, 24 h p.i.): 3.17 ± 1.25 %ID/g
- excreta dose per gram or mL at 120 h ([1]; urine, 120 h p.i.): 0.51 ± 0.21 %ID/g
